Values of other authors, collected in patent US10045948B2, “Pramipexole-containing transdermal patch for treatment of neurodegenerative disease” (MEDRX CO., LTD., priority 2014, dated 2018).

Conditions: in vivo

- Patients with rash and other types of inflammation at the application site: 40-50%
Substance: rotigotine
